Experimental data reported in patent US20240335563A1, “EPIGENETIC MODULATORS FOR TISSUE REPROGRAMMING” (THE TRUSTEES OF INDIANA UNIVERSITY, priority 2021, published 2024).

Columns and labels:
mouse fibroblasts = conditions: LSD1 inhibition; cited from earlier work
[1] = test system: streptozotocin-induced diabetic C57BL/6 male mice; test: Blood glucose in streptozotocin-induced diabetic mice after TNT-PMGF, with intradermal epigenetic modulator; assay type: in vivo; conditions: p<0.001 vs. week 4
intermediate iPSCs = conditions: cited from earlier work; for SCR efficiency: HDAC inhibition
[2] = test system: neural precursor cells and MEFs; conditions: G9a inhibition, H3K9 hypomethylation; cited from earlier work
ESC-specific genes = conditions: alone, without transduction of the reprogramming factors; cited from earlier work

Structure (SMILES): N[C@@H]1C[C@H]1c1ccccc1 (racemic) [Parnate, tranylcypromine]
- reprogramming efficiency of mouse fibroblasts (mouse fibroblasts): increases the reprogramming efficiency

Structure (SMILES): Nc1ncn([C@@H]2O[C@H](CO)[C@@H](O)[C@H]2O)c(=O)n1 [5-Azacytidine]
- average blood glucose ([1]; week 5, after 5-Azacytidine 10 mg/Kg intradermally at TNT sites thrice in week 4, TNT PMGF non-responders): ~275 mg/dL
- blood glucose ([1]; week 8, after subsequent 5-Azacytidine injection at week 7): ~170 mg/dL
- blood glucose ([1]; week 9, after subsequent 5-Azacytidine injection at week 7): 169 mg/dL
- reprogramming of intermediate iPSCs (intermediate iPSCs; DNMT inhibition during reprogramming): allows intermediate iPSCs to be fully reprogrammed

Structure (SMILES): COc1cc2nc(N3CCCN(C)CC3)nc(NC3CCN(Cc4ccccc4)CC3)c2cc1OC [BIX-01294]
- reprogramming of neural precursor cells and MEFs into iPSCs [2]: enhances the reprogramming

Structure (SMILES): CC(/C=C/C(=O)NO)=C\[C@@H](C)C(=O)c1ccc(N(C)C)cc1 [trichostatin A]
- upregulation of ESC-specific genes (ESC-specific genes): sufficient to upregulate ESC-specific genes
- SCR efficiency (intermediate iPSCs): improves SCR efficiency

Structure (SMILES): CCCC(CCC)C(=O)O [valproic acid]
- SCR efficiency (intermediate iPSCs): improves SCR efficiency
